Experimental data taken from patent US5942494A, “Stimulation of gene expression and synthesis of heat shock protein 72/73 (HSP 70)” (The Trustees of Columbia University in the City of New York, priority 1996, dated 1999).
Square brackets hold non-standard residues; d marks the D form. Peptide text beside a SMILES is read from it. Nle = CCCC[C@H](N)C(=O)O

Legend:
[1] = system: Hsp70; assay: Hsp70 level in human microvascular endothelial cell line; format: cell-based; conditions: ALLN 40 μg/ml, 4 hours, 30 min. labeling
Description: ALLN induces Hsp70 protein levels in HepG2 cells in a dose-dependent manner. The effect of ALLN on the protein levels of Hsp70 was analysed by denaturing immunoprecipitation of extracts of [^3 H]-leucine radiolabeled HepG2 cells which had been pre-treated with ALLN for 4 hours at different doses. Denaturing immunoprecipitation was chosen because Hsp70 is a major cytosolic chaperone protein and it is co-immunoprecipitated with a number of other proteins under non-denaturingconditions (Beckmann, et al., 1990; Zhou, et al., 1995). […] This may be due to a low constitutive level of expression of Hsp73 (Hsp70) in HepG2 cells similar to that reported for other cell types in the absence of stress (Welch, et al., 1984). Treatment with ALLN was associated with a marked increase in Hsp70 level, which was further confirmed as Hsp72 (the inducible form) by Western blot (data not shown).

[2] = system: hsp70 (hsp72) mRNA; assay: Northern blot of hsp70 (hsp72) mRNA in HepG2 cells; format: cell-based, human
Description: HepG2 cells were treated with serum-free MEM containing either 1.5% BSA alone (Control, lane1), BSA plus 40 μg/ml of ALLN (ALLN, lane2), ALLN and 10 μg/ml of actinomycin D (A+AD, lane3), or ALLN and 50 μg/ml of cycloheximide (A+CXM, lane4). After 4 hours treatment at 37° C., cells were harvested. (B). HepG2 cells were treated with 40 μg/ml of ALLN in the serum-free MEM for up to 0 hour (lane1), 1 hour (lane2), 2 hours (lane3), and 3 hours (lane4) and then harvested without recovery. Or after treatment for 3 hours in the presence of ALLN as above, the ALLN containing medium were removed, cells were washed and fed fresh medium containing only BSA for recovery of up to 1 hour (lane5), 3 hours (lane6), 5 hours (lane7) or 7 hours (lane8). The total RNA was prepared, and equal amounts of the samples were loaded and run on a 1% formaldehyde-agarose gel, blotted onto a nylon membrane, and subsequently hybridized with specific synthetic oligonucleotide probes for hsp70 mRNA as described under Experimental Details. The position of 28S and 18S rRNA are shown for reference.
Total RNA was prepared using the procedure of Chomczynski and Sacchi (Chomczynski, et al., 1987) and a commercially prepared reagent, TRISOLV™ (Biotecx Laboratories Inc., Tex.) . Equal amounts of tRNA samples (10 μg) were size-fractionated on a 1% agarose-formaldehyde gel according to the methods described (Maniatis, et al., 1982) and transferred to a piece of QIAGEN plus nylon membrane. To determine loading and transfer efficiency, RNA was stained with ethidium bromide before and after transfer. The membrane was baked for 30 min. at 80° C. in vacuo (a vacuum) followed by UV cross-linking. It was then incubated for 4 hours at 65° C. in a prehybridization mixture containing 10% dextran sulfate, 1% SDS, 1M sodium chloride, 50 mM Tris-HCl (pH 7.5) and 100 μg/ml denatured salmon sperm DNA. Hybridization was carried out for 18 hours at 65° C. in the same buffer with a ^32 P-labeled (1×10^6 cpm/ml) 40-mer oligonucleotide probe to the untranslated 5' region of a human hsp70 gene (Oncogene Science). […] The membrane was then washed four times with 2×SSC, 0.1% SDS at room temperature, one time at 65° C. for 30 min., and one time at room temperature again for 5 min., and finally rinsed with 2×SSC at room temperature. This membrane was air dried and exposed to X-ray film at -80° C. for 48 hours.
Total RNA was isolated from HepG2 cells which had been incubated for 4 hours at 37° C. (FIG. 5A) with MEM containing BSA alone (Control, lane1), BSA plus 40 μg/ml of ALLN (ALLN, lane2), BSA plus ALLN and […] of actinomycin D (A+AD, lane3) or BSA plus ALLN and 50 μg/ml of cycloheximide (A+CXM, lane4). A radioprobe containing a unique sequence specific for the 5' untranslated region of hsp72 (inducible form) (Freeman et al., 1993) was used for Northern blot analysis.

CCCC[C@@H](C=O)NC(=O)[C@H](CC(C)C)NC(=O)[C@H](CC(C)C)NC(C)=O [ALLN, N-acetyl-leucyl-leucyl-norleucinal] (Ac-Leu-Leu-[Nle]-aldehyde)
Increment of Hsp70 level [1]: 35 fold | hsp70 (hsp72) mRNA after recovery ([2]; 3 hours ALLN 40 μg/ml, then 7 hours of recovery in ALLN-free medium): declined to background levels | Time of ALLN treatment to significant elevation of hsp70 (hsp72) mRNA ([2]; ALLN 40 μg/ml): ≤ 60 min | Amount of hsp70 (hsp72) mRNA ([2]; ALLN 40 μg/ml, 4 hours at 37° C.): increased dramatically
